Legend:
Assay type in all cases: cell-based
[1] = target: T1, (Homo sapiens, UniProt Q9UBN7); assay: Cytoblot assay of acetylation of α-tubulin in A549 cells; conditions: 24 hours
T1 construct: endogenous in cells; host or cells: A549
T1 sequence (Q9UBN7 1-1215): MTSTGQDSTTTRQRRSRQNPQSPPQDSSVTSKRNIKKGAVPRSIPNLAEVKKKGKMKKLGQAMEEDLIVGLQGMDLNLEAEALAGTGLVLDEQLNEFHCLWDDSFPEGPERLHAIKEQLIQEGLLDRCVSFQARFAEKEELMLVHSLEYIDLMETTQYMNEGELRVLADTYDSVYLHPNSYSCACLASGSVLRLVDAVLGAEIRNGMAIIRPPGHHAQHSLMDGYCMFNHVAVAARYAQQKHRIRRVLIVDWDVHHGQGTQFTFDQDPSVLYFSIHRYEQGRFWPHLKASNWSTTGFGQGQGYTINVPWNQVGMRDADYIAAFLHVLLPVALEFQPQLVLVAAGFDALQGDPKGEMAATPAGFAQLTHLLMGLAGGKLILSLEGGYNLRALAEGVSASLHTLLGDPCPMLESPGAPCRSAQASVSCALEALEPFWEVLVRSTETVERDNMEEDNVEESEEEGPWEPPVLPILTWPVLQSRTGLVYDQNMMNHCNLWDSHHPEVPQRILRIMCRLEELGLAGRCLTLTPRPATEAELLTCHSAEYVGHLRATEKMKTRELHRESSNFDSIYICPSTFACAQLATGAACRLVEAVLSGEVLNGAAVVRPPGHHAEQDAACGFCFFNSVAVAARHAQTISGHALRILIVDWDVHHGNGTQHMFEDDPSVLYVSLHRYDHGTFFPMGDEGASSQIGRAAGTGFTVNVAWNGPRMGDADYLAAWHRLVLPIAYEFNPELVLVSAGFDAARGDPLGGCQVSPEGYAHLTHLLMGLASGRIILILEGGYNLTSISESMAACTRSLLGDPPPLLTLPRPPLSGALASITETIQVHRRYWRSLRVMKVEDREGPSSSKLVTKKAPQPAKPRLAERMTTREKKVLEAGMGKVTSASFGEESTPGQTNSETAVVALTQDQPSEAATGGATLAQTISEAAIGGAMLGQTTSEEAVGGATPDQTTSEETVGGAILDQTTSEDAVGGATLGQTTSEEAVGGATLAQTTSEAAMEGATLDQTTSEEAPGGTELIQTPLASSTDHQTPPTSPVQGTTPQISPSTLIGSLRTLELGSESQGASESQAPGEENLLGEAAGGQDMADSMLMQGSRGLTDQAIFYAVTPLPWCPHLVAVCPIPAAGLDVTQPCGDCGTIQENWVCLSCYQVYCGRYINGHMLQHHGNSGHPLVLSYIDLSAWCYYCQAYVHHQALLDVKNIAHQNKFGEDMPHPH
Method: This assay is used to measure in vivo inhibition of HDAC6 in a cytoblot assay.
• 1. […] Compounds were added and incubated for 24 hours at 37° C. • 3.

HDAC4/5 = assay: MEF2 reporter gene assay in HeLa cells; conditions: relative to SAHA, 24 hours
Method: (§1) HDAC subtype selectivity inhibition assay of tested compounds was carried out by several reporter gene assays experiments. Briefly, HeLa cells were seeded in 96-well plates the day before transfection to give a confluence of 50-80%. Cells were transfected with one of reporter gene plasmids containing a promoter sequences or response elements upstream of a luciferase gene construct using FuGene6 transfection reagent according to the manufacturer's instructions (Roche). The promoter or response elements including p21-promoter, gdf11-promoter, serum response element (SRE), MEF-binding element were fused upstream to the luciferase gene reporter construct. For normalizing the transfection efficiency, a GFP expression plasmid was cotransfected. Cells were allowed to express protein for 24 hours followed by addition of individual compounds or the vehicle (DMSO). 24 hours later the cells were harvested, and the luciferase assays were performed using the luciferase assay kit according to the manufacturer's instructions (Promega). To normalize the data from the luciferase assays, β-galactosidase activity from transfected cells was measured using a kit (Promega) as instructed by the manufacturer.

HDAC7 = target: T2, HDAC7 (Homo sapiens, UniProt Q8WUI4); assay: Nur77 reporter gene assay in HeLa cells; conditions: HeLa, 24 h, read-out: % of SAHA Response for HDAC7 at 10 μM (Nur77 reporter gene)
T2 construct: endogenous in cells; host or cells: HeLa
T2 sequence (Q8WUI4 1-952): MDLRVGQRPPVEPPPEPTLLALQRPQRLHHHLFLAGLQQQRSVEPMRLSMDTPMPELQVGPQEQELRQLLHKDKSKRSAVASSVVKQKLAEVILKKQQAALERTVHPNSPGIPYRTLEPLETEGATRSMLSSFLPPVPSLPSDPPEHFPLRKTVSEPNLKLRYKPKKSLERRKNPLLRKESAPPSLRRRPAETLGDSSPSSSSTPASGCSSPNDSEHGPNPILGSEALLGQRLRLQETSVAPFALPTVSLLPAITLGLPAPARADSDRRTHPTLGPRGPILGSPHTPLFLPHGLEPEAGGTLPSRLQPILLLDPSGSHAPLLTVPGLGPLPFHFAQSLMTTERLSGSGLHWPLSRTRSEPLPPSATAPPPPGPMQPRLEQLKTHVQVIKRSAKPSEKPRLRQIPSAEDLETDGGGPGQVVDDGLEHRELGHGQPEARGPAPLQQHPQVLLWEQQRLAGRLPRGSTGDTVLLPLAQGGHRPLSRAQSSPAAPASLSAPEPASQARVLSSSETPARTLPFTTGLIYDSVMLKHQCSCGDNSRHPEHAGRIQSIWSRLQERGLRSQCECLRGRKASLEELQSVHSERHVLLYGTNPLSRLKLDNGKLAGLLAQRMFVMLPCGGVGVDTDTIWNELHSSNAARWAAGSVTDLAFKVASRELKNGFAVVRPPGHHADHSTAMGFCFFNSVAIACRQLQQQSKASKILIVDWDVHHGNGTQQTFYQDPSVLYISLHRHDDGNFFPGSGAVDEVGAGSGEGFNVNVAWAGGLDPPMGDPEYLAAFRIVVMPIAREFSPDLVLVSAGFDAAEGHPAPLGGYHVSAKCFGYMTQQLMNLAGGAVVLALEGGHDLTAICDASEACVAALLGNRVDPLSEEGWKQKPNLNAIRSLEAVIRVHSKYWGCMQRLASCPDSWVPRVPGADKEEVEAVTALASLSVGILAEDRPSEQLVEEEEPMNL
Method: as §1

HL60 = assay: Cell proliferation (MTS), HL60; conditions: Homo sapiens, HL-60, 72 hours
Method: (§2) Measurement of In Vivo Cell Proliferation:
(§3) Tumor cells were trypsinized and plated into 96-well plates at 3,000 per well and incubated in complete medium with 10% FBS for 24 hours. Compounds were added over a final concentration range of 100 μmol/L to 100 nmol/L in 0.1% DMSO and incubated for 72 hours in complete medium. The effects on proliferation were determined by addition of MTS reagent (Promega) according to the instruction, incubation for 2 hours at 37° C. in CO2 incubator, and record the absorbance at 490 nm using an ELISA plate reader.

Hut-78 = assay: Cell proliferation (MTS), Hut-78; conditions: Homo sapiens, HuT78, 72 hours
Method: as §2, §3

Row | Fold of tubulin acetylation (HDAC7 at 10 μM) [1] [Fold] | activation at 10 µM (HDAC7) [%] | GI50 (HL60) [µM] | Compound | % of SAHA Response for HDAC4/5 at 10 μM (MEF2 reporter gene) (HDAC4/5) [%] | GI50 (Hut-78) [µM]
1 | 0.79 | 38 | 2.29 | Nc1cc(F)ccc1NC(=O)CCCCCNC(=O)C=C1c2ccccc2-c2ccccc21 [Example 12, 6-(2-(9H-fluoren-9-ylidene)acetamido)-N-(2-amino-4-fluorophenyl)hexanamide] | 101 | 3.89
2 | 0.74 | 66 | 1.35 | Nc1ccccc1NC(=O)CCCCCNC(=O)C=C1c2ccccc2-c2ccccc21 [Example 13, 6-(2-(9H-fluoren-9-ylidene)acetamido)-N-(2-aminophenyl)hexanamide] | 118 | 1.35

— US8178577B2, “Tricyclic derivatives as potent and selective histone deacetylase inhibitors” (Shenzhen Chipscreen Biosciences Ltd., priority 2008, dated 2012)
